Read-outs that look alike come from different tables or passages of the source.
B1: BDNF: Brain-derived neurotrophic factor, endogenous TrkB receptor agonist (protein, UniProt P23560 19-247, looked up)
Neurotrophic factor BDNF …: APMKEANIRGQGGLAYPGVRTHGTLESVNGPKAGSRGLTSLADTFEHVIEELLDEDQKVRPNEENNKDADLYTSRVMLSSQVPLEPPLLFLLEEYKNYLDAANMSMRVRRHSDPARRGELSVCDSISEWVTAADKKTAVDMSGGTVTVLEKVPVSKGQLKQYFYETKCNPMGYTKEGCRGIDKRHWNSQCRTTQSYVRALTMDSKKRIGWRFIRIDTSCVCTLTIKRGR

Assays:
[1] = target: T1, exTrkB (Homo sapiens, UniProt Q16620); test: MST binding affinity (Kd) determination; details: non-binding compounds given as 0
T1 construct: human TrkB receptor (exTrkB), residues 1−430, was cloned into the pCMV2 expression vector; made in house; host or cells: ExpiCHO-S cells
T1 sequence (Q16620 32-430): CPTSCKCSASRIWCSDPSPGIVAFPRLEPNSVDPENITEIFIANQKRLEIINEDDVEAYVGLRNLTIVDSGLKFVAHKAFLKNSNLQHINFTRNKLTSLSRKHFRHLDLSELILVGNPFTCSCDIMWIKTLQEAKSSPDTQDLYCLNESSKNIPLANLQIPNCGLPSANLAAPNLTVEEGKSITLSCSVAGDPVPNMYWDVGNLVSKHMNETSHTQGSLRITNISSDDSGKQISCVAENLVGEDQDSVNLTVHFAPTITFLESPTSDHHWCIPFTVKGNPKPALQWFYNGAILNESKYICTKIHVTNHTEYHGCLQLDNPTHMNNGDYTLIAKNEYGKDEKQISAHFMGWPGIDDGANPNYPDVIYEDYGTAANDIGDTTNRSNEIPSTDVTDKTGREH
Description: The gene encoding the extracellular domain of the human TrkB receptor (exTrkB), residues 1−430, was cloned into the pCMV2 expression vector. Protein expression was performed in suspension-cultivated mammalian ExpiCHO-S cells using the ExpiFectamine (Thermo Scientific, Thermo Fisher Scientific, Waltham, MA, USA) transfection reagent. The secreted protein was purified using a four-step protocol. Clarified culture medium was precipitated with ammonium sulfate added to a final concentration of 1.5 M and centrifuged (235,000× g, 60 min at 4 °C). The supernatant after centrifugation was applied on a HiTrap Phenyl column (GE Healthcare, Chicago, IL, USA) equilibrated with buffer A (25 mM Tris, 1 mM DTT; pH 7.5) with 1.5 M ammonium sulfate. Bound proteins were eluted with a linear gradient of buffer A. The eluted proteins were dialyzed overnight in buffer A and loaded on a CaptoQ ImpRes column (GE Healthcare) equilibrated with buffer A with 50 mM NaCl. The bound proteins were eluted with a linear gradient of buffer A with 1 M NaCl. The fractions containing exTrkB protein were pooled, and MnCl2 and CaCl2 (1mM final concentration each) were added. The sample was purified on a HiTrap Con A 4B column (GE Healthcare) equilibrated with buffer B (25 mM Tris, 0.5 M NaCl, 1 mM MnCl2, 1 mM CaCl2; pH 7.5) and eluted with buffer C (25 mM Tris, 0.1 M NaCl, 0.4 M α-D-glucopyranoside; pH 6.5). To improve the protein recovery, buffer C flow was paused nine times during elution. The eluted fractions were concentrated and purified by size-exclusion chromatography on a HiLoad 16/600 Superdex 200 column (GE Healthcare) in buffer A with 0.5 M NaCl. The protein samples were concentrated to 1 mg/mL, and buffer was exchanged (PBS; pH 7.4). Samples were frozen in liquid nitrogen and stored at −80 °C. The protein purity was estimated by SDS–PAGE followed by Coomassie Brilliant Blue staining. The protein concentration was determined from the absorption at 280 nm using an UV NanoDrop 1000 spectrophotometer (Thermo Scientific).
The exTrkB was labeled with a Monolith Protein Labeling Kit RED-NHS 2nd Generation (NanoTemper Technologies GmbH, Munich, Germany) according to the manufacturer’s protocol. The labelling efficiency was always determined spectrophotometrically with NanoPhotometer® NP80 (Impel) in line with the manufacturer’s recommendations. Labelled exTrkB protein was aliquoted and stored at −80 °C to avoid repeated freeze–thaw cycles. Before analysis, the exTrkB protein was thawed on ice and diluted with MST buffer (50 mM Tris pH = 8; 150 mM NaCl; 10 mM MgCl2; 0.1% Tween20) to the desired concentration.
For primary screening (single-point MST experiments for signal amplitude determination), each of the 987 screened compounds were diluted in MST buffer + 0.1% Tween20 to a final concentration of 0.5 mM. The tested compounds were mixed with exTrkB solution (the final concentration of exTrkB was 20 nM) and centrifuged (10,000× g, 4 min at 4 °C) to eliminate protein and compound aggregates. Before loading to capillaries (Monolith NT.115 Capillaries, NanoTemper Technologies GmbH), the samples were incubated for 5 min at 25 °C and then placed into the MST apparatus (Monolith, NanoTemper Technologies GmbH). The experiments were performed using nano-blue excitation, LED light adjusted to 20% excitation power, and MST power set to medium, and the fluorescence signal during thermophoresis was detected after 30 s. Single-point MST experiments were performed by the determination of the amplitude signal between the unbound and bound state between the molecule and exTrkB, which was analyzed using the MO.Control Software version 1.6 (NanoTemper Technologies GmbH). A reference sample containing only exTrkB and the equivalent DMSO concentration (v/v) was included in each individual MST experiment. At least three technical replicates were prepared for each of the tested compounds. A binding affinity study was performed for 113 of the selected compounds at 16 concentration points. […]

[2] = target: TrkB; details: cited from earlier work
[3] = Metabolic stability in human liver microsomes; details: compared with verapamil
[4] = Metabolic stability in mouse liver microsomes; details: compared with verapamil
[5] = target: T2, TrkB receptor (Rattus norvegicus, UniProt Q63604); test: ELFI TrkB phosphorylation, orthosteric agonist mode, SN56 T48 cell line; assay type: cell-based; details: TrkB phosphorylation (Tyr706), 15 min
T2 construct: host or cells: SN56 T48 cell line
T2 sequence (Q63604 32-821): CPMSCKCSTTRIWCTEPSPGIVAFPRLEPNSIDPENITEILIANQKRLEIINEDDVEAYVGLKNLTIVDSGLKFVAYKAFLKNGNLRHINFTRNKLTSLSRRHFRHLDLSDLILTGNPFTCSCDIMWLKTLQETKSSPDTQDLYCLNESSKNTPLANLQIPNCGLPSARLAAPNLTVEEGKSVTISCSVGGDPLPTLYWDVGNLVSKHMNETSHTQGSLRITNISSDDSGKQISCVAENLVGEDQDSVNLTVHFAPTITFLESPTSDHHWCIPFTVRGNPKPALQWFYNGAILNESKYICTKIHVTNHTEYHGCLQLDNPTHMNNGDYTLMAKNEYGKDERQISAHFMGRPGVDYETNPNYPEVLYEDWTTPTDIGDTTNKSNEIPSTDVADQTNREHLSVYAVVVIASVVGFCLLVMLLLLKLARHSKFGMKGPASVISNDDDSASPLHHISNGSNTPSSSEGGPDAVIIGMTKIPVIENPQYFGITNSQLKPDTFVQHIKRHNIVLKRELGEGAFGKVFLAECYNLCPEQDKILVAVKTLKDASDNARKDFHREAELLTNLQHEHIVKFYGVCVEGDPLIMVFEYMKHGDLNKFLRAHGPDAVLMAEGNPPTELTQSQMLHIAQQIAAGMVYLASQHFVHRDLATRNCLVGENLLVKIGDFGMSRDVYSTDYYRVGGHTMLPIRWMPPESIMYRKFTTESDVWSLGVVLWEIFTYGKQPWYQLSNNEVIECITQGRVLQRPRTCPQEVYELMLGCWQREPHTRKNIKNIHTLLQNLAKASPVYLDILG

[6] = no orthosteric activity given as 0

| Molecule | Kd [1] [nM] | Kd ([2]; ref Jang et al. (2010) [12], read-out: Binding affinity) [nM] | Kd ([2]; ref Liu et al. (2014) [35], read-out: Binding affinity) [nM] | Metabolic stability in HLM (classification) [3] | Metabolic stability in MLM (classification) [4] | EC50 [5, 6] [nM] | EC50 [5] [nM] | Kd ([2]; SPR, ref [12],[35], read-out: Kd) [nM] |
| --- | --- | --- | --- | --- | --- | --- | --- | --- |
| O=c1cc(-c2ccccc2)oc2c(O)c(O)ccc12 [7,8-DHF, 7,8-dihydroxyflavone] | 1300 | 15.4 | 12.1 | moderate degradation rate | moderate degradation rate | – | – | – |
| C=CC(C)(C)c1[nH]c2ccccc2c1C1=C(O)C(=O)C(c2c[nH]c3c(CC=C(C)C)cccc23)=C(O)C1=O [DMAQ-B1] | 5600 | – | – | instability of this compound in the experimental system | instability of this compound in the experimental system | 5000 | – | – |
| O=C1C(O)=C(c2c[nH]c3ccccc23)C(=O)C(O)=C1c1c[nH]c2ccccc12 [CPL503052, didemethylasterriquinone D] | 2600 | – | – | – | – | – | – | – |
| B1 | 93 | – | – | – | – | 4 | 3.7 | 1.7 |

From PMC8398766, “Do Small Molecules Activate the TrkB Receptor in the Same Manner as BDNF? Limitations of Published TrkB Low Molecular Agonists and Screening for Novel TrkB Orthosteric Agonists” (Pharmaceuticals, 2021)
